# Source: patent US7223888B2, “Mu opioid receptor ligands: methods of use and synthesis” (President and Fellows of Harvard College, priority 2002, dated 2007)
# Read-outs that look alike come from different tables or passages of the source.
# How the values were obtained:
# hMOR-1 [1] = target: T1, hMOR-1 (Homo sapiens, UniProt P35372); test: Opioid receptor competitive binding assay, MOR (3H-DAMGO); details: Ki MOR, 3H-DAMGO, hMOR-1 stably transfected into CHO cells
# T1 construct: purchased Amersham Biosciences; host or cells: stably transfected CHO cells (membrane preparation)
# Protocol: (§1) For selected compounds, Ki for MOR, DOR, and KOR were determined according to the following procedure: Recombinant hMOR-1 membrane preps from stably transfected CHO cells and recombinant hDOR-1 membrane preps from stably transfected HEK-293 cells were purchased from Amersham Biosciences. Guinea pig cerebellum preparations were used for KOR assays.
# (§2) Each microassay from an assay plate was filtered through an individual well of a Packard GF/B 96-well filter plate (glass fiber filter) to collect the membranes. Each well was washed twice with 200 μL of ice cold wash buffer (50 mM Tris, pH 7.4). The filter plate was allowed to dry overnight, the back was sealed, and Packard Bioscience Microscint PS scintillation fluid (75 μL) was added to each well, which was then counted for ^3H for 2 minutes using a Packard Bioscience TopCount scintillation counter plate reader.
# (§3) Each compound was assayed at 8 concentrations, using half-log serial dilutions. Each concentration was tested in triplicate, and the ^3H cpm were averaged.
# (§4) This concentration was determined experimentally by scintillation counting an aliquot of the radioligand stock solution used in the assay.
# (§5) Kd=the binding constant for the radioligand.
# (§6) This triplicate experiment was repeated three times for the MOR and twice for the DOR and the KOR.
# hDOR-1 = target: T2, hDOR-1 (Homo sapiens, UniProt P41143); test: Opioid receptor competitive binding assay, DOR
# T2 construct: purchased Amersham Biosciences; host or cells: stably transfected HEK-293 cells (membrane preparation)
# Protocol: as §1, §2, §3, §4, §5, §6
# KOR = target: T3, KOR (Cavia porcellus, UniProt P41144); test: Opioid receptor competitive binding assay, KOR (3H-U-69,593); parameters: species or system guinea pig; details: for Ki KOR/Ki MOR: selectivity for MOR versus KOR
# T3 construct: from tissue; host or cells: guinea pig cerebellum preparation
# Protocol: as §1, §2, §3, §6
# hMOR-1 [2] = target: T1, hMOR-1; test: MOR GTP-γ-S assay (MOR activation); assay type: biochemical; details: CHO membranes with hMOR-1; for % GTP-γ-S bound: Table 16, compound 10 μM, percentage of DAMGO induced GTP-γ-35S specific binding; for % GTP-γ-35S bound: Table 15, percentage of DAMGO induced GTP-g-35S specific binding
# Protocol: MOR GTP-γ-S assay was run in the same 200 μL, 96 well format as the binding assay. Each microassay contained experimental compound, 0.04 nM GTP-γ-^35S, 9 μM GDP, and about 0.02 nM MOR (from stably transfected CHO cells), in assay buffer (50 mM Tris-HCl, 3 mM MgCl2, 0.2 mM EGTA, 100 mM NaCl, pH 7.4). The assays were incubated for two to three hours at room temperature, then filtered onto a filter plate. The plate was dried; scintillation fluid was added, and the wells were counted for ^35S. Blank assays were run to determine non-specific binding. […] The results were averaged; the non-specific counts were subtracted, and the resulting value was expressed as a percent of the value obtained for DAMGO. The error reported is two standard deviations from the mean of the quadruplicate experiment. The values were compared using one way Anova with Tukey's post-hoc analysis.
# [3] = Table 4, errors 95% confidence interval
# [4] = Ki DOR, Table 7, 3H-diprenorphine, hDOR-1 stably transfected into HEK-293 cells, errors two standard deviations
# [5] = Table 13, selectivity for MOR versus DOR (footnote: 3H-DPDPE, hDOR-1)
# [6] = Ki KOR, Table 10, 3H-U-69,593, guinea pig cerebellum preparation, errors two standard deviations
# [7] = Table 3, errors 95% confidence interval
# [8] = Ki DOR, Table 6, footnote:, hDOR-1 stably transfected into HEK-293 cells, errors two standard deviations
# [9] = Table 12, selectivity for MOR versus DOR (3H-DPDPE, hDOR-1)
# [10] = Ki KOR, Table 9, 3H-U-69,593, guinea pig cerebellum preps, errors two standard deviations
Compound,Ki (hMOR-1 [1]; Table 5) [µM],% GTP-γ-S bound (hMOR-1 [2]) [%],Ki (hMOR-1 [1]; [3]) [µM],Ki (hDOR-1; [4]) [µM],Ki DOR/Ki MOR (hDOR-1; [5]),Ki (KOR; [6]) [µM],Ki KOR/Ki MOR (KOR; Table 13),% GTP-γ-35S bound (hMOR-1 [2]; compound 10 mM (footnote)) [%],also measured
"NC(=O)C(Cc1ccccc1)NC(=O)C(Cc1ccccc1)C(O)/C=C/C(O)CC(N)Cc1ccc(O)cc1 (single isomer, unassigned) [(S, R, S, R)-43, 7-(1-Carbamoyl-2-phenyl-ethylcarbamoyl)-3,6-dihydroxy-1-(4-hydroxy-benzyl)-8-phenyl-oct-4-enyl-ammonium]",0.032 ± 0.006,37 ± 7,–,–,–,–,–,–,Ki (hDOR-1; read-out: Ki DOR): 0.74 ± 0.04 µM; Ki (KOR; read-out: Ki KOR): 0.29 ± 0.1 µM
"NC(=O)C(Cc1ccccc1)NC(=O)C(Cc1ccccc1)C(O)/C=C/C(O)CC(N)Cc1ccc(O)cc1 (single isomer, unassigned) [(R, R, S, S)-43, 7-(1-Carbamoyl-2-phenyl-ethylcarbamoyl)-3,6-dihydroxy-1-(4-hydroxy-benzyl)-8-phenyl-oct-4-enyl-ammonium]",0.038 ± 0.013,30 ± 6,–,–,–,–,–,–,Ki (hDOR-1; read-out: Ki DOR): 1.2 ± 0.1 µM; Ki (KOR; read-out: Ki KOR): 0.88 ± 0.55 µM
"Cc1cc(O)cc(C)c1CC(N)C(O)C/C=C/C(O)C(Cc1ccccc1)C(=O)OC(CO)Cc1ccccc1 [(S,S,S,R)-30, 7-(1-Benzyl-2-hydroxy-ethoxycarbonyl)-2,6-dihydroxy-1-(4-hydroxy-2,6-dimethyl-benzyl)-8-phenyl-oct-4-enyl-ammonium]",–,–,0.00044 ± 1e-05,0.017 ± 0.006,39,0.085 ± 0.001,190,62 ± 4,–
"NC(=O)C(Cc1ccccc1)NC(=O)C(Cc1ccccc1)C(O)/C=C/C(O)CC(N)Cc1ccc(O)cc1 (single isomer, unassigned) [(S, S, R, S)-43, 7-(1-Carbamoyl-2-phenyl-ethylcarbamoyl)-3,6-dihydroxy-1-(4-hydroxy-benzyl)-8-phenyl-oct-4-enyl-ammonium]",0.014 ± 0.001,25 ± 5,–,–,–,–,–,–,Ki (hDOR-1; read-out: Ki DOR): 1.2 ± 0.1 µM; Ki (KOR; read-out: Ki KOR): 0.45 ± 0.06 µM
"Cc1cc(O)cc(C)c1CC(N)C(O)C/C=C/C(O)C(Cc1ccccc1)C(=O)NCCc1ccccc1 (single isomer, unassigned) [(S,R,R,R)-26, 2,6-Dihydroxy-1-(4-hydroxy-2,6-dimethyl-benzyl)-7-phenethylcarbamoyl-8-phenyl-oct-4-enyl-ammonium]",–,–,0.00072 ± 0.00026,0.066 ± 0.001,91,0.069 ± 0.02,96,27 ± 9,–
"NC(=O)C(Cc1ccccc1)NC(=O)C(Cc1ccccc1)C(O)/C=C/C(O)CC(N)Cc1ccc(O)cc1 (single isomer, unassigned) [(R, S, R, R)-43, 7-(1-Carbamoyl-2-phenyl-ethylcarbamoyl)-3,6-dihydroxy-1-(4-hydroxy-benzyl)-8-phenyl-oct-4-enyl-ammonium]",0.02 ± 0.003,68 ± 10,–,–,–,–,–,–,Ki (hDOR-1; read-out: Ki DOR): 2.5 ± 0.3 µM; Ki (KOR; read-out: Ki KOR): 0.27 ± 0.03 µM
"Cc1cc(O)cc(C)c1CC(N)C(O)C/C=C/C(O)C(Cc1ccccc1)C(=O)NC(Cc1ccccc1)C(N)=O (single isomer, unassigned) [(S,R,S,R)-25, 7-(1-Carbamoyl-2-phenyl-ethylcarbamoyl)-2,6-dihydroxy-1-(4-hydroxy-2,6-dimethyl-benzyl)-8-phenyl-oct-4-enyl-ammonium]",–,–,0.0012 ± 0.0003,0.046 ± 0.016,38,0.015 ± 0.008,13,14 ± 3,–
"NC(=O)C(Cc1ccccc1)NC(=O)C(Cc1ccccc1)C(O)/C=C/C(O)CC(N)Cc1ccc(O)cc1 (single isomer, unassigned) [(S, R, S, S)-43, 7-(1-Carbamoyl-2-phenyl-ethylcarbamoyl)-3,6-dihydroxy-1-(4-hydroxy-benzyl)-8-phenyl-oct-4-enyl-ammonium]",0.042 ± 0.005,57 ± 12,–,–,–,–,–,–,Ki (hDOR-1; read-out: Ki DOR): 2.5 ± 0.3 µM; Ki (KOR; read-out: Ki KOR): 3.1 ± 2.6 µM
"Cc1cc(O)cc(C)c1CC(N)C(O)C/C=C/C(O)C(Cc1ccccc1)C(=O)NC(Cc1ccccc1)C(N)=O (single isomer, unassigned) [(S,S,S,R)-25, 7-(1-Carbamoyl-2-phenyl-ethylcarbamoyl)-2,6-dihydroxy-1-(4-hydroxy-2,6-dimethyl-benzyl)-8-phenyl-oct-4-enyl-ammonium]",–,–,0.00017 ± 7e-05,0.04 ± 0.001,230,0.022 ± 0.009,130,35 ± 5,–
"Cc1cc(O)cc(C)c1CC(N)C(O)C/C=C/C(O)C(Cc1ccccc1)C(=O)NC(Cc1ccccc1)C(N)=O (single isomer, unassigned) [(S,R,R,R)-25, 7-(1-Carbamoyl-2-phenyl-ethylcarbamoyl)-2,6-dihydroxy-1-(4-hydroxy-2,6-dimethyl-benzyl)-8-phenyl-oct-4-enyl-ammonium]",–,–,0.0016 ± 0.0009,0.085 ± 0.013,53,0.025 ± 0.014,16,43 ± 9,–
"Cc1cc(O)cc(C)c1CC(N)C(O)C/C=C/C(O)C(Cc1ccccc1)C(=O)NC(CO)Cc1ccccc1 [(S,S,S,R)-27]",–,–,0.00016 ± 6e-05,0.054 ± 0.008,–,0.069 ± 0.014,–,44 ± 6,–
"Cc1cc(O)cc(C)c1CC(N)C(O)C/C=C/C(O)C(Cc1ccccc1)C(=O)NCCc1ccccc1 (single isomer, unassigned) [(S,R,S,R)-26, 2,6-Dihydroxy-1-(4-hydroxy-2,6-dimethyl-benzyl)-7-phenethylcarbamoyl-8-phenyl-oct-4-enyl-ammonium]",–,–,0.00024 ± 5e-05,0.123 ± 0.008,510,0.051 ± 0.001,210,49 ± 4,–
"NC(=O)[C@H](Cc1ccccc1)NC(=O)[C@H](Cc1ccccc1)NC(=O)[C@H]1CCCN1C(=O)[C@@H](N)Cc1ccc(O)cc1 [Compound 1, Endomorphin-2, reference compound]",0.001 ± 0.0001,100 ± 6,0.00069 ± 0.00018,–,–,–,–,–,Ki (hMOR-1 [1]; [7]): 0.0012 ± 0.0001 µM; % GTP-γ-35S bound (hMOR-1 [2]; compound 10 μM (footnote)): 100 ± 6%
"Cc1cc(O)cc(C)c1CC(N)C(O)C/C=C/C(O)C(Cc1ccccc1)C(=O)NC(CN)Cc1ccccc1 [(S,S,S,R)-28]",–,–,0.00045 ± 5e-05,0.021 ± 0.004,–,–,–,47 ± 5,–
"C=CC(O)C(Cc1ccccc1)NC(=O)C(Cc1ccccc1)C(O)/C=C/CC(O)C(N)Cc1ccc(O)cc1 (single isomer, unassigned) [(S,S,S,R)-12, (E)-8-Amino-2-benzyl-3,7-dihydroxy-9-(4-hydroxy-phenyl)-non-4-enoic acid (1-benzyl-2-hydroxy-but-3-enyl)-amide]",–,–,–,–,–,–,–,–,Ki (hMOR-1 [1]; [7]): 0.02 ± 0.001 µM; Ki (hDOR-1; [8]): 0.68 ± 0.04 µM; Ki DOR/Ki MOR (hDOR-1; [9]): 34; Ki (KOR; [10]): 1.05 ± 0.01 µM; Ki KOR/Ki MOR (KOR; Table 12): 53
"C=CC(O)C(Cc1ccccc1)NC(=O)C(Cc1ccccc1)C(O)/C=C/CC(O)C(N)Cc1ccc(O)cc1 (single isomer, unassigned) [(S,R,R,R)-12, (E)-8-Amino-2-benzyl-3,7-dihydroxy-9-(4-hydroxy-phenyl)-non-4-enoic acid (1-benzyl-2-hydroxy-but-3-enyl)-amide]",–,–,–,–,–,–,–,–,Ki (hMOR-1 [1]; [7]): 0.037 ± 0.001 µM; Ki (hDOR-1; [8]): 0.57 ± 0.28 µM; Ki DOR/Ki MOR (hDOR-1; [9]): 15; Ki (KOR; [10]): 0.97 ± 0.08 µM; Ki KOR/Ki MOR (KOR; Table 12): 26
"NC(Cc1ccc(O)cc1)C(O)C/C=C/C(O)C(Cc1ccccc1)C(=O)NC(CO)Cc1ccccc1 (single isomer, unassigned) [(S,R,R,R)-11, (E)-8-Amino-2-benzyl-3,7-dihydroxy-9-(4-hydroxy-phenyl)-non-4-enoic acid (1-hydroxymethyl-2-phenyl-ethyl)-amide]",–,–,–,–,–,–,–,–,Ki (hMOR-1 [1]; [7]): 0.028 ± 0.005 µM; Ki (hDOR-1; [8]): 0.96 ± 0.1 µM; Ki DOR/Ki MOR (hDOR-1; [9]): 34; Ki (KOR; [10]): 3.4 ± 1.3 µM; Ki KOR/Ki MOR (KOR; Table 12): 120
